This experiment has as its target T1, α5β3γ2 GABAA receptors (Homo sapiens, UniProt P18507+P28472+P31644).
T1 construct: expressed in transfected cells; host or cells: Xenopus oocytes (injected with cDNA)
The experiment is described as follows: Two-electrode voltage clamp electrophysiology in Xenopus oocytes in the presence of GABA. The conditions noted are these: compound 10 µM, GABA 10 µM. The format is cell-based. As to the method: Xenopus oocytes were stored in incubation media (pH 7.5), consisting of ND96 supplemented with 2 mM sodium pyruvate, […] gentamycin, and 10 mL heat inactivated HyClone horse serum. Stage 4 to 5 oocytes were injected with 40 nL of cDNA coding for α5, β3, and γ2 subunits in a ratio of 1:1:10, utilizing a Drummond Nanoject III. Injected oocytes were stored at 18 °C and used in electrophysiology studies within 2–7 days of injection.
Whole cell two-electrode voltage clamp (TEVC) recording were conducted on oocytes in the presence of GABA, according to previously reported methods. Oocytes were voltage clamped at a membrane potential of −70 mV. The oocyte recording chamber was continuously perfused with modified bath solution (MBS) with select compound (10 µM) and GABA (10 µM), with a final concentration of 1% DMSO [22, 44]. […] Oocytes were perfused at a rate of 3 mL/min. Electrophysiology recordings were conducted in triplicate compound for each compound. The change of GABAAR activity was determined by comparison of GABAAR potentiation to the EC20 with control saline in the presence of GABA.
Pharmacokinetic parameters were calculated using noncompartmental analysis. Elimination half-life (T1/2) was calculated with R software from the linear regression of the terminal phase of the log serum concentration-time curve. The AUC0→24 was calculated with OriginLab software by trapezoidal analysis of the serum concentration-time plot. Cmax and Tmax were determined directly from observed data. Data are expressed as mean ± SEM. Statistical significance between AUC0→24 among test groups was calculated with an independent t-test (GraphPad software, San Diego, CA, USA). Time to LORR was analyzed by repeated measured ANOVA. Tolerance was determined by mean split in LORR response and confirmed with paired t-test (Week 1 vs. Week 8). Statistical significance of serum concentrations for individual time points was calculated using a two-way analysis of variance (ANOVA) analysis. Post hoc Bonferroni tests were performed when justified. Statistical significance of electrophysiology results compound GABAergic modulation was determined using a paired t-test (Vehicle control vs. Compound, GraphPad software, San Diego CA, USA). p < 0.05 was considered significant.
In general terms: Two-electrode voltage clamp is typically applied to oocytes expressing channels or transporters.

T1 sequence (P31644 32-462): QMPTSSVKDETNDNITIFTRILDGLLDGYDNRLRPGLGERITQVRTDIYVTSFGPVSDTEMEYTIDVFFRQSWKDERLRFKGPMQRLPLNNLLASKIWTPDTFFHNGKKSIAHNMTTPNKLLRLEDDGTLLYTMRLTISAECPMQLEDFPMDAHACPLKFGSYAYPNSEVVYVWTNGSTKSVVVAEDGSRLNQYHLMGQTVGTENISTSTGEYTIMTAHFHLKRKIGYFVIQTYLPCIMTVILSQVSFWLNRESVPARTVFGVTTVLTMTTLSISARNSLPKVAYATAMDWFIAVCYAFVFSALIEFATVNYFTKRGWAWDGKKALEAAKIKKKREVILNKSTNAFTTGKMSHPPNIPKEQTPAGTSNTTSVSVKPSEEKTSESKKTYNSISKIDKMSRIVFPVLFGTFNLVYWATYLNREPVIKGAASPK
T1 sequence (P28472 26-473): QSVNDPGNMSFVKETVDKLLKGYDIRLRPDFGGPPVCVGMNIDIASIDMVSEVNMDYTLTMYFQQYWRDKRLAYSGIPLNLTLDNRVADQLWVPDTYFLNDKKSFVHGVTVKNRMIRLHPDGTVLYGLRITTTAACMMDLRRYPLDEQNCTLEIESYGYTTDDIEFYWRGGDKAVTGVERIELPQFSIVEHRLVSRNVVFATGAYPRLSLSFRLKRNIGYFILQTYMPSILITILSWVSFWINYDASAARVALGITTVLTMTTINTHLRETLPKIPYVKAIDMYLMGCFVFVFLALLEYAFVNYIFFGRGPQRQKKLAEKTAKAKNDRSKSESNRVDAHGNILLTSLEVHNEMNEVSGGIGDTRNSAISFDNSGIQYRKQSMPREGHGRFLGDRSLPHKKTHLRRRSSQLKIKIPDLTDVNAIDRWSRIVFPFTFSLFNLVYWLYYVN
T1 sequence (P18507 40-475): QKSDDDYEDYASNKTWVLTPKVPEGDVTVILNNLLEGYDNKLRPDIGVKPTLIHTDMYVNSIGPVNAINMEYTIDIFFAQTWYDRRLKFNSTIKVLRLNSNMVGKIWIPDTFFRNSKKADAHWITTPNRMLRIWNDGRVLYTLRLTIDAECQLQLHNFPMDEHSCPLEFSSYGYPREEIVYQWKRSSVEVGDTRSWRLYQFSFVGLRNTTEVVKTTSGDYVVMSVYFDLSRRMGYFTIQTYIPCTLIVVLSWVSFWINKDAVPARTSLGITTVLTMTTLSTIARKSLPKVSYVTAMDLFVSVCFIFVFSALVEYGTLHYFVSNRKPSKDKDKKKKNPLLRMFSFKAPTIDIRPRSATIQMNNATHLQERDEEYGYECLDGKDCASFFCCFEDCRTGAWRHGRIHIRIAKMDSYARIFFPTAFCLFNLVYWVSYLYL

Regarding `O=C1c2c(O)cc(O)cc2O[C@H](c2cc(O)c(O)c(O)c2)[C@H]1O` [DHM, Dihydromyricetin], the GABAAR potentiation entry is “+43.2%”. Besides, where the note is “mean ± SEM”, the “GABAAR potentiation” value was “+43.2 ± 5.6”.
